According to patent publication US10919935B2, “Antimicrobial peptide derived from myxinidin peptide and uses thereof” (INDUSTRY-ACADEMIC COOPERATION FOUNDATION, CHOSUN UNIVERSITY, priority 2015, dated 2021):
Residues, ends and D or L forms follow the SMILES beside them.

Tests used:
Escherichia coli = test: MIC at salt concentration (Example 3); format: cell-based
Experimental: (§1) To compare the antimicrobial activity of the peptide produced by the method of Example 1, the inventors of the present invention measured the minimum growth inhibitory concentration (MIC), which is minimum concentration of the peptide showing no dissociation of bacterial cells, at salt concentration.
(§2) Specifically, the bacterial strain described in the above Table 2 was cultured in each medium to a mid-log phase. Then, after dilution to bacterial cell concentration of 2×10^5 cells/100 μl, the cells were inoculated to a microtiter plate (NUNC, USA). Thereafter, myxinidin 1, myxinidin 2, or myxinidin 3 peptides which have been synthesized in Example 1 above was diluted, 1/2 times for each, with BSA+150 mM sodium chloride (NaCl) solution, physiological saline (PBS) solution, or 10 mM sodium phosphate (SP) solution in a 96-well plate. After adding the cells to a plate, the cells were cultured for 12 hours at 37° C. By using a microtiter plate reader (Merck Elisa reader, Germany), the absorbance was measured at a wavelength of 600 nm to determine the MIC value of each bacterial strain. As a control group, myxinidin as a mother peptide was subjected to the same processes as above and the MIC value of each bacterial strain was obtained.

Escherichia coli 1238 = test: MIC at salt concentration (Example 3); format: cell-based
Experimental: as §1, §2

[1] = system: Listeria monocytogenes KCTC 3710; format: cell-based
Experimental: (§3) To compare the antimicrobial activity of the peptide produced by the method of Example 1, the inventors of the present invention measured the growth minimum inhibitory concentration (MIC), which is minimum concentration of the peptide showing no dissociation of bacterial cells.
(§4) Specifically, the bacterial strain described in the following Table 2 was purchased and cultured in each medium to a mid-log phase. Then, after dilution to bacterial cell concentration of 2×10^5 cells/100 μl, the cells were inoculated to a microtiter plate (NUNC, USA). Thereafter, myxinidin 1, myxinidin 2, or myxinidin 3 peptides which have been synthesized in Example 1 above was diluted, 1/2 times for each, with BSA (bovine serum albumin) solution in a 96-well plate. After adding the cells to a plate, the cells were cultured for 12 hours at 37° C. By using a microtiter plate reader (Merck Elisa reader, Germany), the absorbance was measured at a wavelength of 600 nm to determine the MIC value of each bacterial strain. As a control group, myxinidin as a mother peptide was subjected to the same processes as above and the MIC value of each bacterial strain was obtained.

[2] = system: Pseudomonas aeruginosa Isolated strain 5018; format: cell-based
Experimental: as §3, §4

[3] = system: Pseudomonas aeruginosa ATCC 27853; format: cell-based
Experimental: as §3, §4

[4] = system: Escherichia coli CCARM 1238; format: cell-based
Experimental: as §3, §4

[5] = system: Escherichia coli CCARM 1229; format: cell-based
Experimental: as §3, §4

[6] = system: Escherichia coli ATCC 25922; format: cell-based
Experimental: as §3, §4

[7] = system: Staphylococcus aureus CCARM 3709; format: cell-based
Experimental: as §3, §4

[8] = system: Pseudomonas aeruginosa Isolated strain 3592; format: cell-based
Experimental: as §3, §4

[9] = system: Salmonella typhimurium KCTC 1926; format: cell-based
Experimental: as §3, §4

[10] = system: Staphylococcus aureus CCARM 3114; format: cell-based
Experimental: as §3, §4

[11] = system: Staphylococcus aureus ATCC 25923; format: cell-based
Experimental: as §3, §4

[12] = system: Salmonella typhimurium CCARM 8009; format: cell-based
Experimental: as §3, §4

[13] = system: Salmonella typhimurium CCARM 8013; format: cell-based
Experimental: as §3, §4

TNF-α, IL-6, and IL-8 = test: ELISA of cytokines and chemokine in infected skin keratinocyte cells; format: cell-based, human; conditions: keratinocytes infected with S. aureus, A. baumannii or P. aeruginosa; peptide at 2 times MIC
Experimental: To specifically determine the anti-inflammatory effect of the synthetic peptide of the present invention, infection with Acinetobacter baumannii, Pseudomonas aeruginosa, or Staphylococcus aureus and a treatment with myxinidin 2 and myxinidin 3 synthetic peptides were carried out, and interleukin-6 (IL-6) and interleukin-8 (IL-8), which are a cytokine and a chemokine, and tumor necrosis factor alpha (TNF-α) were analyzed by enzyme-linked immunosorbent assay.
Specifically, interleukin-6, interleukin-8, and tumor necrosis factor-α were analyzed by a human immune assay kit. Human skin keratinocyte cells were infected with Staphylococcus aureus, Acinetobacter baumannii, or Pseudomonas aeruginosa, which are the bacterial strain having tolerance to antibiotics, followed by a treatment with the peptide at a concentration that is 2 times higher than the minimum inhibitory concentration to have a reaction. After that, only the supernatant was collected and subjected to an enzyme-linked immunosorbent assay.

[14] = system: skin wound of mouse infected with bacteria having tolerance to antibiotics; test: Healing of infected skin wound of mouse; format: in vivo, BALB/c female mouse; conditions: 5 mm biopsy punch wound, peptide at 2 times MIC, observed for 2 weeks
Description: Healing process of skin wound of a mouse induced by the synthetic peptide of the present invention, in which the mouse has been infected with Acinetobacter baumannii, Pseudomonas aeruginosa, or Staphylococcus aureus as the bacterial strain having tolerance to antibiotics, was observed during different time periods. The animal tissue was stained by hematoxylin and eosin (H & E) staining to examine the skin tissue having inflammation.
Specifically, a wound was created in a 6 week to 7 week old BALB/c female mouse using 5 mm biopsy punch. Then, the mouse was infected with Staphylococcus aureus, Acinetobacter baumannii, or Pseudomonas aeruginosa, which are the bacterial strain having tolerance to antibiotics, followed by administration of the peptide at a concentration that is 2 times higher than the minimum inhibitory concentration.

[15] = NaCl (BSA+150 mM sodium chloride)

Row | SMILES | Antimicrobial activity (MIC) according to salt concentration (Escherichia coli; [15]) | Antimicrobial activity (MIC) according to salt concentration (Escherichia coli; PBS) | Antimicrobial activity (MIC) according to salt concentration (Escherichia coli; SP (10 mM sodium phosphate)) | Antimicrobial activity (MIC) according to salt concentration (Escherichia coli 1238; [15]) | Antimicrobial activity (MIC) according to salt concentration (Escherichia coli 1238; PBS) | Antimicrobial activity (MIC) according to salt concentration (Escherichia coli 1238; SP (10 mM sodium phosphate)) | Minimum growth inhibitory concentration [1] | Minimum growth inhibitory concentration [2] | Minimum growth inhibitory concentration [3] | Minimum growth inhibitory concentration [4] | Minimum growth inhibitory concentration [5] | Minimum growth inhibitory concentration [6] | Minimum growth inhibitory concentration [7] | Minimum growth inhibitory concentration [8] | Minimum growth inhibitory concentration [9] | Minimum growth inhibitory concentration [10] | Minimum growth inhibitory concentration [11] | Minimum growth inhibitory concentration [12] | Minimum growth inhibitory concentration [13] | Expression of cytokine and chemokine (IL-6, TNF-α, IL-8; ELISA) (TNF-α, IL-6, and IL-8) | other results
1 | CC[C@H](C)[C@H](NC(=O)CN)C(=O)N[C@@H](Cc1c[nH]cn1)C(=O)N[C@@H](Cc1c[nH]cn1)C(=O)N[C@H](C(=O)N[C@@H](CC(C)C)C(=O)N[C@@H](CCCCN)C(=O)N[C@@H](Cc1ccc(O)cc1)C(=O)NCC(=O)N[C@@H](CCCCN)C(=O)N1CCC[C@H]1C(=O)N[C@@H](CO)C(N)=O)[C@@H](C)CC [Myxinidin 1, GIHHILKYGKPS-NH2] (H-GIHHILKYGKPS-NH2; N-terminus assumed) | >32 | >32 | >32 | >32 | >32 | >32 | >32 µM | >32 µM | >32 µM | >32 µM | >32 µM | >32 µM | >32 µM | >32 µM | >32 µM | >32 µM | >32 µM | >32 µM | >32 µM | – | –
2 | CC[C@H](C)[C@H](NC(=O)[C@H](Cc1c[nH]c2ccccc12)NC(=O)[C@H](CCCCN)NC(=O)[C@@H](NC(=O)[C@@H](N)CCCCN)[C@@H](C)CC)C(=O)N[C@@H](CC(C)C)C(=O)N[C@@H](CCCCN)C(=O)N[C@@H](Cc1ccc(O)cc1)C(=O)N[C@@H](Cc1c[nH]c2ccccc12)C(=O)N[C@@H](CCCCN)C(=O)N[C@@H](Cc1c[nH]c2ccccc12)C(=O)N[C@@H](CO)C(N)=O [Myxinidin 2, KIKWILKYWKWS-NH2] (H-KIKWILKYWKWS-NH2; N-terminus assumed) | 8 | 4 | 2 | 8 | 2 | 4 | 4 µM | 4 µM | 4 µM | 4 µM | 2 µM | 1 µM | 2 µM | 8 µM | 2 µM | 32 µM | 0.25 µM | 8 µM | 16 µM | has decreased | Wound healing of infected mouse skin wound [14]: showed epidermalization and wound maturation
3 | CC[C@H](C)[C@H](NC(=O)[C@H](Cc1c[nH]c2ccccc12)NC(=O)[C@H](CCCNC(=N)N)NC(=O)[C@@H](NC(=O)[C@@H](N)CCCNC(=N)N)[C@@H](C)CC)C(=O)N[C@@H](CC(C)C)C(=O)N[C@@H](CCCNC(=N)N)C(=O)N[C@@H](Cc1ccc(O)cc1)C(=O)N[C@@H](Cc1c[nH]c2ccccc12)C(=O)N[C@@H](CCCNC(=N)N)C(=O)N[C@@H](Cc1c[nH]c2ccccc12)C(=O)N[C@@H](CO)C(N)=O [Myxinidin 3, RIRWILRYWRWS-NH2] (H-RIRWILRYWRWS-NH2; N-terminus assumed) | 8 | 2 | 2 | 8 | 4 | 2 | 1 µM | 8 µM | 2 µM | 2 µM | 1 µM | 0.5 µM | 2 µM | 8 µM | 1 µM | 8 µM | 0.25 µM | 4 µM | 4 µM | has decreased | Wound healing of infected mouse skin wound [14]: showed epidermalization and wound maturation
